These results are taken from patent US20080312303A1, “Imidazole Derivatives and Their Use for Modulating the Gabaa Receptor Complex” (NeuroSearch A/S, priority 2005, published 2008).

As a reminder, the IC50 is the concentration that gives 50% inhibition. A higher IC50 goes with a need for much substance.

For this assay, the target named is benzodiazepine modulatory unit (GABAA receptor complex). As to the kind of experiment: In vitro inhibition of 3H-flunitrazepam (3H-FNM) binding. The conditions noted are these: inhibition of specific binding of 3H-FNM (1 nM); cerebral cortex membranes from male Wistar rats; 40 min at 2° C. Also on record: species or system rat. The method, then: In vitro inhibition of ^3H-flunitrazepam (^3H-FNM) binding
The GABA recognition site and the benzodiazepine modulatory unit can selectively be labelled with ^3H-flunitrazepam.
Preparations are performed at 0-4° C. unless otherwise indicated. Cerebral cortex from male Wistar rats (150-200 g) is homogenised for 5-10 sec in 20 ml Tris-HCl (30 mM, pH 7.4) using an Ultra-Turrax homogeniser. The suspension is centrifuged at 27,000×g for 15 min and the pellet is washed three times with buffer (centrifuged at 27,000×g for 10 min). The washed pellet is homogenized in 20 ml of buffer and incubated on a water bath (37° C.) for 30 min to remove endogenous GABA and then centrifuged for 10 min at 27,000×g. The pellet is then homogenized in buffer and centrifuged for 10 min at 27,000×g. The final pellet is resuspended in 30 ml buffer and the preparation is frozen and stored at −20° C.
The membrane preparation is thawed and centrifuged at 2° C. for 10 min at 27,000×g. The pellet is washed twice with 20 ml 50 mM Tris-citrate, pH 7.1 using an Ultra-Turrax homogeniser and centrifuged for 10 min at 27,000×g. The final pellet is resuspended in 50 mM Tris-citrate, pH 7.1 (500 ml buffer per g of original tissue), and then used for binding assays. Aliquots of 0.5 ml tissue are added to 25 μl of test solution and 25 μl of ^3H-FNM (1 nM, final concentration), mixed and incubated for 40 min at 2° C. Non-specific binding is determined using Clonazepam (1 μM, final concentration). After incubation the samples are added 5 ml of ice-cold buffer and poured directly onto Whatman GF/C glass fibre filters under suction and immediately washed with 5 ml ice-cold buffer. The amount of radioactivity on the filters is determined by conventional liquid scintillation counting. Specific binding is total binding minus non-specific binding.
25-75% inhibition of specific binding must be obtained, before calculation of an IC50.
The test value will be given as IC50 (the concentration (μM) of the test substance which inhibits the specific binding of ^3H-FNM by 50%).
For `N#Cc1cccc(-n2cnc(-c3ccccc3)c2)c1` [3-(4-Phenyl-imidazol-1-yl)-benzonitrile], the IC50 was 100 nM. In turn, `COc1ccc(-c2cn(-c3cccc(-c4ccccc4)c3)cn2)cc1` [1-Biphenyl-3-yl-4-(4-methoxy-phenyl)-1H-imidazole] showed a concentration for half-maximal inhibition (IC50) of 460 nM. Compared with the last compound, the IC50 is about 4.6-fold higher. The figure for `Nc1cccc(-c2cn(-c3cccc(-c4ccccc4)c3)cn2)c1` [1-Biphenyl-3-yl-4-(3-amino-phenyl)-1H-imidazole] is 800 nM.
